Measurements: patent US20030215523A1, “Medicinal compositions for concomitant use as anticancer agent” (priority 2000, published 2003)
Where a name gives a salt, the structure may show the parent alone. Read-outs that look alike come from different tables or passages of the source.

What was measured:
[1] = tested on: Human colon cancer strain Colo320D.M.; experiment: Combined use of E7070 and 5-FU in human colon cancer Colo320D.M. xenograft model; conditions: for Toxicity Dead/Treated: Colo320D.M. xenograft, nude mice, E7070 30 mg/kg/day QDx5, 5-FU 60 mg/kg/day Q4Dx3
Source text: (§1) J Natl Cancer Inst. Jun. 5, 1996;88(11):747-53; (iii) Effects of growth hormone and testosterone on cortical bone formation and bone density in aged orchiectomized rats. Bone. 1999 May;24(5):491-7).

[2] = tested on: Human non-small cell lung cancer LU-99; conditions: for Tx4 (days) mean ± S.D.: time in days for tumor size to attain 4 folds of initial tumor size: LU-99 s.c. in nude mice, E7070 25 mg/kg/day i.v. QDx5, CDDP 7.5 mg/kg/day i.v. single dose, + simultaneous (E7070 day 1-5, CDDP day 1), E7070 → CDDP (day 6), CDDP (day 1) → E7070 (day 2-6)
Source text: as §1

[3] = tested on: Human colon cancer strain SW620; experiment: Combined use of E7070 and CPT-11 in human colon cancer SW620 xenograft model; conditions: for Tx4 (days) mean ± S.D.: time in days for tumor size to attain 4 folds of initial tumor size: SW620 s.c. in nude mice, E7070 25 mg/kg/day i.v. QDx5, CPT-11 62.5 mg/kg/day i.v. Q4Dx3, + simultaneous (E7070 day 1-5, CPT-11 day 1, 5, 9), E7070 → CPT-11 (day 6, 10, 14), CPT-11 → E7070 (day 10-14); for Toxicity mRBW (minimum relative body weight) mean: parentheses: day when RBW was minimal
Source text: as §1
E7070 alone was intravenously administered once per day for5 days (first to fifth days), while CPT-11 alone was intravenously administered 3 times (once every 4 days, that is, on the first, fifth and ninth days).

[4] = tested on: Human colon cancer strain HCT15; conditions: for Tx4 (days) mean ± S.D.: time in days for tumor size to attain 4 folds of initial tumor size: HCT15 s.c. in nude mice, E7070 30 mg/kg/day i.v. QDx5 (day 1-5), CPT-11 75 mg/kg/day i.v. Q4Dx3 (day 1, 5, 9); for Toxicity Dead/Treated: HCT15 xenograft, nude mice, E7070 30 mg/kg/day QDx5, CPT-11 75 mg/kg/day Q4Dx3
Source text: as §1

[5] = tested on: Human colon cancer strain HCT15; experiment: Combined use of E7070 and MMC in human colon cancer HCT15 xenograft model; conditions: for Tx4 (days) mean ± S.D.: time in days for tumor size to attain 4 folds of initial tumor size: HCT15 s.c. in nude mice, E7070 25 mg/kg/day i.v. QDx5 (day 1-5; combination row prints 30 mg/kg/day), MMC 4.19 mg/kg/day i.v. single dose (day 1); for Toxicity Dead/Treated: HCT15 xenograft, nude mice, E7070 QDx5, MMC 4.19 mg/kg/day QDx1
Source text: as §1

Human breast cancer HBC4 = experiment: Combined use of E7070 and capecitabine in human breast cancer HBC4 xenograft model; assay type: in vivo
Source text: as §1

[6] = Further anticancer agents examined for synergistic effect in combined use with E7070; conditions: used in the compositions of the invention (with E7070); model and data not given
[7] = SW620 xenograft, nude mice, E7070 25 mg/kg/day QDx5, CPT-11 62.5 mg/kg/day Q4Dx3
[8] = LU-99 xenograft, nude mice, E7070 25 mg/kg/day QDx5, CDDP 7.5 mg/kg/day QDx1
[9] = HBC4 xenograft, nude mice, E7070 30.625 mg/kg/day, capecitabine 1.3125 mmol/kg/day

O=c1[nH]cc(F)c(=O)[nH]1 [5-FU, 5-fluoro-2,4-(1H,3H)-pyrimidinedione, reference compound]
Toxicity Dead/Treated [1]: 0/6

N.N.[Cl][Pt][Cl] [CDDP, cis-diamminedichloroplatinum, reference compound]
Tx4 (days) mean ± S.D.: time in days for tumor size to attain 4 folds of initial tumor size [2]: 10.7 ± 0.5 days

CCc1c2c(nc3ccc(OC(=O)N4CCC(N5CCCCC5)CC4)cc13)-c1cc3c(c(=O)n1C2)COC(=O)[C@]3(O)CC [CPT-11, [1,4′-Bipiperidine]-1′-carboxylic acid (S)-4,11-diethyl-3,4,12,14-tetrahydro-4-hydroxy-3,14-dioxo-1H-pyrano-[3′,4′:6,7]-indolizino[1,2-b]quinolin-9-yl ester Hydrochloride trihydrate, reference compound]
Tx4 (days) mean ± S.D.: time in days for tumor size to attain 4 folds of initial tumor size [3]: 48.7 ± 29.7 days
Toxicity Dead/Treated [3, 7]: 0/6
Toxicity mRBW (minimum relative body weight) mean [3, 7]: 0.99(8)
Tx4 (days) mean ± S.D.: time in days for tumor size to attain 4 folds of initial tumor size [4]: 17.8 ± 1.0 days
Toxicity Dead/Treated [4]: 0/6

NS(=O)(=O)c1ccc(S(=O)(=O)Nc2cccc3c(Cl)c[nH]c23)cc1 [E7070, N-(3-chloro-1H-indol-7-yl)-4-sulfamoylbenzenesulfonamide]
Tx4 (days) mean ± S.D.: time in days for tumor size to attain 4 folds of initial tumor size [3]: 30.2 ± 6.1 days
Toxicity Dead/Treated [3, 7]: 0/6
Toxicity mRBW (minimum relative body weight) mean [3, 7]: 0.98(8)
mRTV (minimum relative tumor volume) mean ± S.D. ([3]; SW620 xenograft, nude mice, E7070 25 mg/kg/day QDx5, CPT-11 62.5 mg/kg/day Q4Dx3, parentheses: day when RTV was minimal): 0.76 ± 0.42(12)
Tx4 (days) mean ± S.D.: time in days for tumor size to attain 4 folds of initial tumor size [5]: 12.7 ± 2.2 days
Toxicity Dead/Treated [5]: 0/6
Tx4 (days) mean ± S.D.: time in days for tumor size to attain 4 folds of initial tumor size [2]: 18.2 ± 2.3 days
Toxicity Dead/Treated [2, 8]: 0/6
mRTV (minimum relative tumor volume) mean ± S.D. [2, 8]: 0.75 ± 0.16
Tx4 (days) mean ± S.D.: time in days for tumor size to attain 4 folds of initial tumor size [4]: 18.7 ± 2.0 days
Toxicity Dead/Treated [4]: 0/6
Tx4 (days): time in days for tumor size to attain 4 folds of initial size (Human breast cancer HBC4; HBC4 s.c. in nude mice, E7070 30.625 mg/kg/day (87.5% MTD) once per day for 5 days, capecitabine 1.3125 mmol/kg/day (87.5% MTD) once per day for 14 days, combination: E7070 day 1-5, capecitabine day 6-19): 50.0 ± 8.1 days
CR, complete response: incidence of tumor free mice (Human breast cancer HBC4; [9]): 0/6
PR, partial response: incidence of tumor regression (more than 50% of tumor regression) (Human breast cancer HBC4; [9]): 6/6
mRTV (minimum relative tumor volume) (Human breast cancer HBC4; [9]): 0.24 ± 0.07
T · C (Human breast cancer HBC4; HBC4 xenograft, Tx4 of treated versus control, E7070 30.625 mg/kg/day, capecitabine 1.3125 mmol/kg/day): 28.0 days
Tx4 (days) mean ± S.D.: time in days for tumor size to attain 4 folds of initial tumor size ([1]; Colo320D.M. s.c. in nude mice, E7070 30 mg/kg/day i.v. QDx5, 5-FU 60 mg/kg/day i.v. Q4Dx3, + simultaneous (E7070 day 1-5, 5-FU day 1, 5, 9), E7070 → 5-FU (day 6, 10, 14), 5-FU → E7070 (day 10-14)): 11.2 ± 1.9 days
Toxicity Dead/Treated [1]: 0/6

CO[C@@]12[C@H](COC(N)=O)C3=C(C(=O)C(C)=C(N)C3=O)N1C[C@@H]1N[C@@H]12 [MMC, [1aS-(1aα,8β,8aα,8bα)]-6-amino-8-[[(aminocarbonyl)oxy]methyl]1,1a,2,8,8a,8b-hexahydro-8a-methoxy-5-methylazirino[2′,3′:3,4]pyrrolo[1,2-a]indole-4,7-dione, reference compound]
Tx4 (days) mean ± S.D.: time in days for tumor size to attain 4 folds of initial tumor size [5]: 16.2 ± 3.4 days
Toxicity Dead/Treated [5]: 0/6

COc1cccc2c1C(=O)c1c(O)c3c(c(O)c1C2=O)C[C@@](O)(C(=O)CO)C[C@@H]3O[C@H]1C[C@H](N)[C@H](O)[C@H](C)O1 [doxorubicin, 10-[(3-amino-2,3,6-trideoxy-α-L-1yxo-hexopyranosyl)oxy]-7,8,9,10-tetrahydro-6,8,11-trihydroxy-8-(hydroxyacetyl)-1-methoxy-(8S-cis)-5,12-naphthacenedione]
Antitumor activity when examined for synergistic effect (in words) [6]: excellent antitumor activity

Nc1ccn([C@@H]2O[C@H](CO)[C@@H](O)C2(F)F)c(=O)n1 [gemcitabine hydrochloride, 2′-deoxy-2′,2′-difluoro-cytidine hydrochloride]
Antitumor activity when examined for synergistic effect (in words) [6]: excellent antitumor activity
